Structures are written as SMILES. Where two headings read alike, the source gives them in different places. Bounds are passed on as bounds.

In the assay the target is human full-length recombinant HPK1 (Homo sapiens (Human), UniProt Q92918). Description: HPK1 biochemical enzyme assay, microfluidic mobility shift assay (MSA). As to conditions: read-out: HPK1 Enzyme Assay_Ki. As for the experimental part:
HPK1 enzyme inhibition was measured using a microfluidic mobility shift assay (MSA). […] The reactions were conducted for 60 min at 37° C., stopped by the addition of 50 μL of 0.015 M EDTA, pH 8, and the extent of reactions (˜15-20% conversion with no inhibitor) was determined after electrophoretic separation of the fluorescently labeled peptide substrate and phosphorylated product on an LabChip EZ Reader II (PerkinElmer, Inc., Waltham, Mass.). […]

Where [1] appears, read: mobility shift assay, 75 μM ATP, Morrison equation, tight-binding competitive inhibition.

Sequence of human full-length recombinant HPK1 (Q92918 whole entry): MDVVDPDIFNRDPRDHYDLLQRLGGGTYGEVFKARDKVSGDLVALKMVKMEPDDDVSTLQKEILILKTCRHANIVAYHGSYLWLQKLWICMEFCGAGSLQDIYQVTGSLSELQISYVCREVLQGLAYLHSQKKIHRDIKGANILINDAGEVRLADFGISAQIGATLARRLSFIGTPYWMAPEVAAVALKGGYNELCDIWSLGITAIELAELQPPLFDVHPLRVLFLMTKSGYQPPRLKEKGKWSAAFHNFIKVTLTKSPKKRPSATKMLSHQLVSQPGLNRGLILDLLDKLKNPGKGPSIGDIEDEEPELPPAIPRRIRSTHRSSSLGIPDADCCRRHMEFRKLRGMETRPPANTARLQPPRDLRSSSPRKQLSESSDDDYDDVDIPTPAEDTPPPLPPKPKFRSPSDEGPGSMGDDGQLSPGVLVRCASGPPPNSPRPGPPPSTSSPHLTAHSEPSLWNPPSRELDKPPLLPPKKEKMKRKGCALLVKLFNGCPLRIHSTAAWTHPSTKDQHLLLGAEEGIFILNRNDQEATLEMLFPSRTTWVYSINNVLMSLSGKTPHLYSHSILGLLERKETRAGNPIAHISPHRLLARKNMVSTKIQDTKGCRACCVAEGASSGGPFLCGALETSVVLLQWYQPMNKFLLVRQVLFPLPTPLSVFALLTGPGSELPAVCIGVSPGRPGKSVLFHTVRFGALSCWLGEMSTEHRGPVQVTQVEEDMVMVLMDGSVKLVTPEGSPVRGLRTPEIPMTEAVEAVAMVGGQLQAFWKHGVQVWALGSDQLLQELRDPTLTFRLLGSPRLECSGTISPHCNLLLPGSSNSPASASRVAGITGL

For the compound `CCC(CC(F)(F)F)n1cnnc1-c1cccc(N2Cc3c(cc(C4(C)CC4)nc3CNC)C2=O)n1` (single isomer, unassigned) [Example 180], the Ki (HPK1 mobility shift assay) stood at 25.1 nM.

Regarding `CCC(CC(F)(F)F)n1cnnc1-c1cccc(N2Cc3c(cc(C4(C)CC4)nc3CNC)C2=O)n1` (single isomer, unassigned) [Example 181], the Ki (HPK1 mobility shift assay) worked out at 0.13 nM.

On to `CC[C@H](CO)n1cnnc1-c1cccc(N2Cc3c(cc(C4(C)CC4)nc3CNC)C2=O)n1` (single isomer, unassigned) [Example 183], for which the Ki (HPK1 mobility shift assay) is 0.35 nM.

Take `CC[C@@H](CO)n1cnnc1-c1cccc(N2Cc3c(cc(C4(C)CC4)nc3CNC)C2=O)n1` (single isomer, unassigned) [Example 184]: the Ki (HPK1 mobility shift assay) was found to be 1.15 nM.

Regarding `CNCc1nc(N2[C@H](C)C[C@H]2C)cc2c1CN(c1cccc(-c3nncn3C(C)C)n1)C2=O` [Example 3, 6-[(2R,4R)-2,4-dimethylazetidin-1-yl]-4-[(methylamino)methyl]-2-{6-[4-(propan-2-yl)-4H-1,2,4-triazol-3-yl]pyridin-2-yl}-2,3-dihydro-1H-pyrrolo[3,4-c]pyridin-1-one], the Ki under setting [1] came to 0.77 nM.

On to `CNCc1nccc2c1CN(c1cccc(-c3nncn3C(C)C)n1)C2=O` [Example 23, 4-[(methylamino)methyl]-2-{6-[4-(propan-2-yl)-4H-1,2,4-triazol-3-yl]pyridin-2-yl}-2,3-dihydro-1H-pyrrolo[3,4-c]pyridin-1-one], for which the Ki under setting [1] worked out at 140 nM.

As for `CNCc1nc(N2[C@H]3CC[C@@H]2CC3)cc2c1CN(c1cccc(-c3nncn3C(C)C)n1)C2=O` [Example 25, 6-[(1s,4s)-7-azabicyclo[2.2.1]hept-7-yl]-4-[(methylamino)methyl]-2-{6-[4-(propan-2-yl)-4H-1,2,4-triazol-3-yl]pyridin-2-yl}-2,3-dihydro-1H-pyrrolo[3,4-c]pyridin-1-one], under setting [1], the Ki amounted to 1 nM.

Consider `CNCc1nc(N2[C@H](C)CC[C@@H]2C)cc2c1CN(c1cccc(-c3nncn3C(C)C)n1)C2=O` [Example 27, 6-[(2R,5S)-2,5-dimethylpyrrolidin-1-yl]-4-[(methylamino)methyl]-2-{6-[4-(propan-2-yl)-4H-1,2,4-triazol-3-yl]pyridin-2-yl}-2,3-dihydro-1H-pyrrolo[3,4-c]pyridin-1-one], for which the Ki under setting [1] is 0.19 nM.

Take `CC(C)n1cnnc1-c1cccc(N2Cc3c(cc(C4CC4)nc3CN)C2=O)n1` [Example 31, 4-(aminomethyl)-6-cyclopropyl-2-{6-[4-(propan-2-yl)-4H-1,2,4-triazol-3-yl]pyridin-2-yl}-2,3-dihydro-1H-pyrrolo[3,4-c]pyridin-1-one]: the Ki under setting [1] amounted to 0.66 nM.

For the compound `CNCc1nc(C(F)(F)F)cc2c1CN(c1cccc(-c3nncn3C(C)C)n1)C2=O` [Example 52, 4-[(methylamino)methyl]-2-{6-[4-(propan-2-yl)-4H-1,2,4-triazol-3-yl]pyridin-2-yl}-6-(trifluoromethyl)-2,3-dihydro-1H-pyrrolo[3,4-c]pyridin-1-one], under setting [1], the Ki was 89.9 nM.

`CCCn1cnnc1-c1cccc(N2Cc3c(cc(N4CCC[C@H]4C)nc3CNC)C2=O)n1` [Example 55, 4-[(methylamino)methyl]-6-[(2R)-2-methylpyrrolidin-1-yl]-2-[6-(4-propyl-4H-1,2,4-triazol-3-yl)pyridin-2-yl]-2,3-dihydro-1H-pyrrolo[3,4-c]pyridin-1-one]: under setting [1], the Ki was less than 0.06 nM.

For the compound `CCCn1cnnc1-c1cccc(N2Cc3c(cc(N(C)C(C)C)nc3CNC)C2=O)n1` [Example 63, 4-[(methylamino)methyl]-6-[methyl(propan-2-yl)amino]-2-[6-(4-propyl-4H-1,2,4-triazol-3-yl)pyridin-2-yl]-2,3-dihydro-1H-pyrrolo[3,4-c]pyridin-1-one], the Ki under setting [1] is less than 0.09 nM.

Consider `CCCn1c(C)nnc1-c1cccc(N2Cc3c(cc(N(C)C(C)C)nc3CNC)C2=O)n1` [Example 64, 4-[(methylamino)methyl]-6-[methyl(propan-2-yl)amino]-2-[6-(5-methyl-4-propyl-4H-1,2,4-triazol-3-yl)pyridin-2-yl]-2,3-dihydro-1H-pyrrolo[3,4-c]pyridin-1-one], for which the Ki under setting [1] was less than 0.17 nM.

The values are drawn from patent publication US11142525B2 (Pfizer Inc., priority 2018, dated 2021).
